The target of the assay is T1, Epac2^Δ280 (Mus musculus, UniProt Q9EQZ6).
T1 construct: made in house
T1 sequence (Q9EQZ6 281-993 isoform Q9EQZ6-3): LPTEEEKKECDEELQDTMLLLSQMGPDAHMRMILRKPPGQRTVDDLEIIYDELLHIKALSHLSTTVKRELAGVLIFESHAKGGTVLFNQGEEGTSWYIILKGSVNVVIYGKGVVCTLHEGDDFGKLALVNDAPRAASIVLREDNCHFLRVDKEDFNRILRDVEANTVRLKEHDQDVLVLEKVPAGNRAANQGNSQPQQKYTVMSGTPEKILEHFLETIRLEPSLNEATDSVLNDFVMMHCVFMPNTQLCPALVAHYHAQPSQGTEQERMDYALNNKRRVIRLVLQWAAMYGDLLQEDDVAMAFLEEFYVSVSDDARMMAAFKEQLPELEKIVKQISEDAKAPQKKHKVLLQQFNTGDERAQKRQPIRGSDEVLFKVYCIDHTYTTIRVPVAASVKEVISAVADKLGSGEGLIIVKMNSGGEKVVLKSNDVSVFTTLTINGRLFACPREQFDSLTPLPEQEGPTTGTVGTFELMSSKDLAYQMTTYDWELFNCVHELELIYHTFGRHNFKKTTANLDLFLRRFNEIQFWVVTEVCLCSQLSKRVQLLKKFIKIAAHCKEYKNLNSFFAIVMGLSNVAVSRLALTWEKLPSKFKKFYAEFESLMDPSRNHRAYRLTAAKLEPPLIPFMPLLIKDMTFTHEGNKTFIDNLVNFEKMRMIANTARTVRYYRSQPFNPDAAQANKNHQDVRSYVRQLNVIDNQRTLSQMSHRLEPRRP
The experiment in a line: Epac activation assay (Rap1B•mGDP fluorescence nucleotide exchange), Epac2^Δ280. It counts as biochemical. The note with it: for AC50 / Rel. kmax: Epac2^Δ280; for Rel. kmax: maximal activity relative to cAMP. On the procedure: Murine Epac2 was used as all previous structural studies were performed with it.
The activity of Epac was determined by a fluorescence assay. […] The fluorescence intensity of Rap1B•mGDP is approximately twice that of free mGDP, and thus, nucleotide exchange can be observed as a decay in fluorescence upon the addition of excess unlabeled GDP.

As a reminder, the AC50 is the midpoint of the concentration-response curve, whichever way the signal moves. Low values mean activity at low concentration, high ones activity only at high concentration. In turn, `CCCO[C@@H]1[C@@H]2OP(=O)(O)OC[C@H]2O[C@H]1n1cnc2c(N)ncnc21` [Z-005, 2′-O-Pr-cAMP] returned an AC50 of 70000 nM and a Rel. kmax of 0.5.
Consider `O=C(Nc1ncnc2c1ncn2[C@@H]1O[C@@H]2COP(=O)(O)O[C@H]2[C@H]1O)c1ccccc1` [N-002, N^6-Bnz-cAMP], for which the concentration at half-maximal activity (AC50) was found to be 2900 nM and the Rel. kmax is 0.1. In addition, the “activation” value (Epac2) is listed as “inability to activate Epac2”.
Compound `Nc1ncnc2c1nc(N1CCOCC1)n2[C@@H]1O[C@@H]2COP(=O)(O)O[C@H]2[C@H]1O` [L-020, 8-Morph-cAMP] displayed a concentration at half-maximal activity (AC50) of 18000 nM and a Rel. kmax of 3.8.
The corresponding values for `Nc1ncnc2c1nc(OCc1ccccc1)n2[C@@H]1O[C@@H]2CO[P@](O)(=S)O[C@H]2[C@H]1O` [S-150, Sp-8-BnO-cAMPS] are 1300 nM and 4.8.
`Nc1ncnc2c1nc(Cl)n2[C@@H]1O[C@@H]2COP(O)(=S)O[C@@H]2C1O` (some centres unmarked) [S-020, Sp-8-Cl-cAMPS] gave a half-maximal activity concentration (AC50) of 400 nM and a Rel. kmax of 3.8.
Taken in the same sequence, the figures for `Nc1ncnc2c1nc(OCc1ccccc1)n2[C@@H]1O[C@@H]2COP(=O)(O)O[C@H]2[C@H]1O` [L-023, 8-BnO-cAMP] were 1300 nM and 1.6.
Take `Nc1ncnc2c1nc([Se]Cc1ccccc1)n2[C@@H]1O[C@@H]2COP(=O)(O)O[C@H]2[C@H]1O` [L-028, 8-BnSe-cAMP]: the activity was half-maximal at 30 nM (AC50) and the Rel. kmax was 1.7.
On to `CCN(CC)c1nc2c(N)ncnc2n1[C@@H]1O[C@@H]2COP(=O)(O)O[C@H]2[C@H]1O` [L-016, 8-DEA-cAMP], for which the concentration at half-maximal activity (AC50) is 9000 nM and the Rel. kmax is listed as 5.1.
Taken in the same sequence, the figures for `C=CCNc1nc2c(N)ncnc2n1[C@@H]1O[C@@H]2COP(=O)(O)O[C@H]2[C@H]1O` [L-011, 8-AllA-cAMP] were 1900 nM and 1.5.
`O=P1(O)OCC2OC(n3cnc4c(NCc5ccccc5)ncnc43)C(O)C2O1` (centres unmarked) [N-001, N^6-Bn-cAMP] yielded a concentration at half-maximal activity (AC50) of 1100 nM and a Rel. kmax of 0.3.
Taken in the same sequence, the figures for Sp-8-PIA-cAMPS [S-120] were 14000 nM and 2.3.
Taken in the same sequence, the figures for `CN(C)c1nc2c(N)ncnc2n1[C@@H]1O[C@@H]2CO[P@](O)(=S)O[C@H]2[C@H]1O` [S-070, Sp-8-DMeA-cAMPS] were 2100 nM and 9.3.
The corresponding values for `Nc1ncnc2c1ncn2[C@@H]1O[C@@H]2COP(O)(=S)O[C@H]2[C@H]1O` (some centres unmarked) [R-000, Rp-cAMPS] are 10000 nM and 0.2.
Turning to `CC(C)N(C)c1nc2c(N)ncnc2n1[C@@H]1O[C@@H]2CO[P@](O)(=S)O[C@H]2[C@H]1O` [S-100, Sp-8-iPrMeA-cAMPS], the AC50 is 7000 nM and the Rel. kmax turned out to be 4.5.
As to `CCNc1nc2c(N)ncnc2n1[C@@H]1O[C@@H]2CO[P@](O)(=S)O[C@H]2[C@H]1O` [S-040, Sp-8-EA-cAMPS], the AC50 worked out at 1900 nM and the Rel. kmax is on record as 5.4.
Taken in the same sequence, the figures for `CC(C)(C)c1ccc(CSc2nc3c(N)ncnc3n2[C@@H]2O[C@@H]3CO[P@](O)(=S)O[C@H]3[C@H]2O)cc1` [S-240, Sp-8-ptBuBnT-cAMPS] were 100 nM and 5.0.
The corresponding values for `Nc1ncnc2c1nc(N)n2[C@@H]1O[C@@H]2COP(=O)(O)O[C@H]2[C@H]1O` [L-003, 8-NH2-cAMP] are 200 nM and 0.7.
On to Sp-8-ADOA-cAMPS [S-060], for which half-maximal activity (AC50) was put at 6200 nM and the Rel. kmax came to 2.1.
Taken in the same sequence, the figures for `Nc1ncnc2c1nc(N1CCCC1)n2[C@@H]1O[C@@H]2COP(=O)(O)O[C@H]2[C@H]1O` [L-017, 8-Pyr-cAMP] were 3900 nM and 4.4.
Taken in the same sequence, the figures for `C=CCO[C@@H]1[C@@H]2OP(=O)(O)OC[C@H]2O[C@H]1n1cnc2c(N)ncnc21` [Z-007, 2′-O-All-cAMP] were 70000 nM and 1.0.

The values are drawn from publication PMC4300089, “Structure-Guided Design of Selective Epac1 and Epac2 Agonists” (PLoS Biology, 2015).
